{"source": "patent US20110143992A1", "about": "“Methods and Compositions Related to GHS-R Antagonists” (priority 2006, published 2011)", "key": {"[1]": {"tested_on": "glioma cell", "details": "cited from earlier work"}, "[2]": {"tested_on": "primary brain tumors", "details": "via ERK dependent pathways; cited from earlier work"}, "[3]": {"details": "in vivo; cited from earlier work"}, "[4]": {"tested_on": "HIV", "details": "cited from earlier work"}, "[5]": {"tested_on": "breast and pancreatic carcinoma", "details": "cited from earlier work"}, "[6]": {"tested_on": "EDG receptor", "assay": "Sphingosine 1 phosphate induced calcium release in human T cells", "format": "cell-based"}, "[7]": {"details": "obese mice, cited from earlier work"}, "[8]": {"tested_on": "CEMR5 human T cell lymphoma cell", "assay": "Transwell chemotaxis assay, SDF-1 induced migration of CEMR5 cells", "format": "cell-based", "details": "SDF-1 100 ng/ml", "method": "(§1) Chemotaxis Assay. Fluorescence-based Transwell chemotaxis assays were performed to assess cell migration. Primary human T cells, CEMR5 and HH cells were labeled with 10 μg/ml Hoechst 33342 (Molecular Probes) in cRPMI for 30 min at 37° C. The cells were then resuspended in RPMI with 1% FBS to a concentration of 1×10^7/ml and 100 ul of Hoechst labeled cells (10^6 cells) were added into the top chamber of the transwells. Cells were treated with DLG in the upper chamber and RPMI (0.6 ml) containing 1% FBS was added to the bottom wells of the 24-well plate with 100 ng/ml of SDF-1α. Transwell chambers with 5 μm pore filters (Corning CoStar, Acton, Mass.) were then placed into the wells. Cells (1×10^6 in 100 μl) were then added to the chambers. After 2 h, the migrated cells in the bottom wells were transferred to triplicate wells of a 96-well plate in 150 μl volumes. Hoechst fluorescence was measured on a Fluoroskan Ascent FL fluorescence plate reader (Thermo Labsystems, Franklin, Mass.) at λex=355 nm, and λem=460 nm. Results are expressed as migration index calculated by subtracting the fluorescence intensity of media alone and comparing the values to the fluorescence intensity (relative number) of cells migrated into the bottom chamber in media alone, which is normalized to a value of 1. Fluorescence values were within the linear range of a standard dilution curve."}, "[9]": {"tested_on": "HIV1 (CXCR4, S1 strain)", "assay": "HIV-1 infectivity of CEM-GFP indicator cells (GFP fluorescence)", "format": "cell-based", "details": "1 ug/ml pretreatment 30 min, 90 min viral incubation", "method": "Neomycin-resistant indicator CEM-GFP cells were used to monitor the infections with HIV1 (CXCR4, S1 strain). Viral entry into CEM cells via CXCR4 results in generation of green fluorescent protein signal. CEM cells (1 million/ml) were pretreated with DLG (1 ug/ml) and SDF-1 (1 ug/ml) for 30 min followed by 90 min viral incubation."}, "[10]": {"target": "T1, CCR5 (Homo sapiens, UniProt P51681)", "T1 sequence (P51681 whole entry)": "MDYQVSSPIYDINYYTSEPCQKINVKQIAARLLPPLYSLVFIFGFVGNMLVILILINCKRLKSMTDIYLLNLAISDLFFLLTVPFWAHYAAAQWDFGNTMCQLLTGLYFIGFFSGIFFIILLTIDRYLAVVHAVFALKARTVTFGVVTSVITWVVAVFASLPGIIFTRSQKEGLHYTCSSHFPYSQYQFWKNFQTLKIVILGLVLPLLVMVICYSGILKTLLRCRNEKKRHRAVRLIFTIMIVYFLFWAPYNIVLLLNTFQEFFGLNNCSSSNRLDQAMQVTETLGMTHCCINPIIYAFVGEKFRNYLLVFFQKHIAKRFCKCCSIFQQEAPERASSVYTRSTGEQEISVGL", "assay": "MIP-1β induced calcium release in CEM-R5 cells (Fura-2AM)", "format": "cell-based", "set-up": "ATCC; host or cells: CEM-R5 cells", "details": "CEMR5 cells, MIP-1β 100 ng/ml"}, "[11]": {"target": "T2, CCR7 (Homo sapiens, UniProt P32248)", "T2 construct": "MIP-3β induced calcium release (A) and sphingosine 1 phosphate (B) is not affected by DLG treatment in human T cells; endogenous in cells; host or cells: human T cells", "T2 sequence (P32248 25-378)": "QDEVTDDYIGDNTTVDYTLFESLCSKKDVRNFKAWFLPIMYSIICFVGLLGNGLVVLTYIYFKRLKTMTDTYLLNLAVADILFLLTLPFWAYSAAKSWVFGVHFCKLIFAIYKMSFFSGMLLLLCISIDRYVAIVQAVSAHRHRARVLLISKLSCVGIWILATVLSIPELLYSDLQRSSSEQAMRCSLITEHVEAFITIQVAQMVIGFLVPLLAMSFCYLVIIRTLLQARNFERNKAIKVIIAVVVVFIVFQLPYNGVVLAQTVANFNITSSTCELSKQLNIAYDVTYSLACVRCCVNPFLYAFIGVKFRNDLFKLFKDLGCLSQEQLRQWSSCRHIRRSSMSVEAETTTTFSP", "assay": "MIP-3β induced calcium release in human T cells", "format": "cell-based"}, "[12]": {"tested_on": "SW1008 astrocytoma cells", "assay": "SDF-1 induced ERK phosphorylation, Western blot, SW1008 cells", "format": "cell-based, human", "details": "DLG pretreatment 30 min", "method": "(§2) Western blot analysis. Control and treated cells were lysed in RIPA buffer supplemented with protease and phosphatase inhibitor cocktail (Sigma-Aldrich, St. Louis, Mo.) and protein concentrations of cell lysates were determined by Bradford assay. Protein lysates (30 μg) were diluted with sample buffer and separated on 4-20% Tris HCl SDS-polyacrylamide gels (Biorad, Hercules, Calif.) and electrophoretically transferred to nitrocellulose membranes (Schleicher & Schuell). The blots were then incubated with rabbit anti-phospho-P42 and pERK (Cell Signaling, Beverly, Mass.). Immune complexes were visualized by incubation with either an anti-rabbit or an anti-mouse HRP-conjugated secondary antibody (Amersham, Piscataway, N.J.). The immunoreactive band was visualized by enhanced chemiluminescence (Perkin-Elmer)."}, "[13]": {"tested_on": "Primary human T cells", "assay": "Transwell chemotaxis assay, SDF-1 induced migration of primary human T cells", "format": "cell-based", "details": "SDF-1 100 ng/ml, 2 h", "method": "as §1"}, "[14]": {"target": "T3, CXCR4 (Homo sapiens, UniProt P61073)", "T3 sequence (P61073 whole entry)": "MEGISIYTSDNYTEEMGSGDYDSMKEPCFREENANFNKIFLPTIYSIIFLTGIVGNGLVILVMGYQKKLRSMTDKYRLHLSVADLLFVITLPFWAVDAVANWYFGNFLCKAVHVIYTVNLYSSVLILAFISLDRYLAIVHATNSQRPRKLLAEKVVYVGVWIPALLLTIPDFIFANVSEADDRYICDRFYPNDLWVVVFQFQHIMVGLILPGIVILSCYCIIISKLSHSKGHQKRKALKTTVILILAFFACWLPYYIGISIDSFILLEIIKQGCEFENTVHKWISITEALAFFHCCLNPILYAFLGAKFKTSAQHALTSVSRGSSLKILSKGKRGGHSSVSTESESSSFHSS", "assay": "SDF-1 induced intracellular calcium mobilization (Fura-2AM) in primary human T cells", "format": "cell-based", "set-up": "endogenous in cells; host or cells: primary human T cells purified from donor PBMCs", "method": "Intracellular calcium mobilization. Measurement of intracellular calcium release in response to ghrelin and SDF-1 was performed as described previously (Dixit et al. J. Clin. Invest. 114, 57-66 (2004)). Cells were incubated in PBS containing […] Fura-2 acetoxymethyl ester (Molecular Probes) for 30 minutes at room temperature. The cells were subsequently washed and then resuspended at 1×10^6/ml in PBS. A total of 2 ml of the cell suspension was placed in a continuously stirring cuvette at room temperature in an LS50B spectrophotometer (Perkin-Elmer, Wellesley, Mass., USA). Labeled T cells were treated with SDF-1 (100 ng/ml) and along with DLG (Sigma-Aldrich) at various concentrations. Fluorescence was monitored at λex1=340 nm, λex2=380 nm, and λcm=510 nm. The data are presented as the relative ratio of fluorescence excited at 340 and 380 nm."}, "[15]": {"tested_on": "U118 astrocytoma cells", "assay": "SDF-1 induced ERK phosphorylation, Western blot, U118 cells", "format": "cell-based, human", "details": "DLG pretreatment 30 min", "method": "as §2"}, "[16]": {"details": "cited from earlier work"}, "[17]": {"target": "T3, CXCR4", "assay": "flow cytometry, whole cell ligand binding on T-SUP1 cells; competitor biotinylated SDF-1 + avidin-FITC; DLG 10^-2 M for 15 minutes by the legend of FIG. 5"}, "[18]": {"target": "T1, CCR5", "assay": "flow cytometry, whole cell ligand binding on T-SUP1 cells; competitor biotinylated MIP-1β + avidin-FITC; DLG 10^-2 M for 15 minutes by the legend of FIG. 5"}}, "note": "[ ]: non-standard residue; d: D form.", "data": [{"molecule": "c1cc(CN2CCCNCCNCCCNCC2)ccc1CN1CCCNCCNCCCNCC1", "note": "[AMD3100]", "values": [{"measurement": "glioma cell invasion", "setting": "[1]", "result": "blocks glioma cell invasion"}, {"measurement": "intracranial growth of primary brain tumors", "setting": "[2]", "result": "effectively inhibit intracranial growth of primary brain tumors"}, {"measurement": "allergy and collagen induced arthritis", "setting": "[3]", "result": "decreases allergy and collagen induced arthritis"}, {"measurement": "CXCR4 mediated HIV viral entry", "setting": "[4]", "result": "successfully utilized to block CXCR4 mediated HIV viral entry"}, {"measurement": "metastasis of breast and pancreatic carcinoma", "setting": "[5]", "result": "blocks"}]}, {"molecule": "H-His-D-Trp-D-Lys-Trp-D-Phe-Lys-NH2 (H-H[dW][dK]W[dF]K-NH2; SMILES NCCCC[C@H](NC(=O)[C@@H](Cc1ccccc1)NC(=O)[C@H](Cc1c[nH]c2ccccc12)NC(=O)[C@@H](CCCCN)NC(=O)[C@@H](Cc1c[nH]c2ccccc12)NC(=O)[C@@H](N)Cc1c[nH]cn1)C(N)=O) [DLG]", "values": [{"measurement": "effect on sphingosine 1 phosphate mediated calcium flux", "setting": "[6]", "result": "did not affect"}, {"measurement": "body weight", "setting": "[7]; repeated administration", "result": "reduce body weight in obese mice"}, {"measurement": "glycaemic control and insulin resistance", "setting": "[7]; repeated administration", "result": "improve their glycaemic control and insulin resistance"}, {"measurement": "muscle mass", "setting": "[7]", "result": "without affecting the muscle mass"}, {"measurement": "size of abdominal fat pads", "setting": "[7]", "result": "reduced the size of abdominal fat pads"}, {"measurement": "inhibition of SDF-1 induced migration", "setting": "[8]", "result": "inhibited the migration"}, {"measurement": "HIV infectivity (GFP fluorescence intensity) compared to untreated cells", "setting": "[9]", "result": "substantial reduction in HIV infectivity"}, {"measurement": "inhibition of calcium release post MIP-1β-CCR5 interaction", "setting": "[10]", "result": "dose dependent inhibition of calcium release"}, {"measurement": "effect on MIP-3β mediated calcium flux", "setting": "[11]", "result": "did not affect"}, {"measurement": "effect on SDF-1 induced ERK/P42 phosphorylation", "setting": "[12]", "result": "abrogated the SDF-1 induced signaling"}, {"measurement": "inhibition of SDF-1 induced T cell migration", "setting": "[13]", "result": "marked dose dependent inhibition"}, {"measurement": "inhibition of SDF-1-induced calcium flux", "setting": "[14]; primary human T cells, SDF-1 100 ng/ml, DLG at various concentrations", "result": "markedly inhibited in a dose dependent fashion"}, {"measurement": "calcium flux by the substance alone", "setting": "[14]; unstimulated primary human T cells", "result": "did not flux calcium by itself"}, {"measurement": "effect on SDF-1 induced ERK/P42 phosphorylation", "setting": "[15]", "result": "abrogated the SDF-1 induced signaling"}, {"measurement": "food intake", "setting": "[16]; fed state when circulating ghrelin levels are low", "result": "does not affect food intake in the fed state"}, {"measurement": "adverse side effects", "setting": "[16]; in vivo", "result": "without any adverse side effects"}]}, {"molecule": "H-H[dW][dK]W[dF]K-NH2 (SMILES NCCCC[C@H](NC(=O)[C@@H](Cc1ccccc1)NC(=O)[C@H](Cc1c[nH]c2ccccc12)NC(=O)[C@@H](CCCCN)NC(=O)[C@@H](Cc1c[nH]c2ccccc12)NC(=O)[C@@H](N)Cc1c[nH]cn1)C(N)=O)", "note": "[D-[Lys3]GHRP-6 (H-His-D-Trp-D-Lys-Trp-D-Phe-Lys-NH2)]", "values": [{"measurement": "percent reduction of maximal binding", "setting": "[17]", "result": "50 to 60", "unit": "%"}, {"measurement": "percent reduction of maximal binding", "setting": "[18]", "result": "50 to 60", "unit": "%"}]}]}
